Laboratory results published in publication PMC6386719, “A glycyl radical enzyme enables hydrogen sulfide production by the human intestinal bacterium Bilophila wadsworthia” (Proceedings of the National Academy of Sciences of the …, 2019).

Legend:
[1] = biological target: T1, Tpa (taurine:pyruvate aminotransferase) (Bilophila wadsworthia, UniProt E5Y945); test: deamination to sulfoacetaldehyde; LC-MS; assay type: biochemical
T1 construct: His-tagged, E. coli Rosetta 2 DE3
T1 sequence (E5Y945 1-456): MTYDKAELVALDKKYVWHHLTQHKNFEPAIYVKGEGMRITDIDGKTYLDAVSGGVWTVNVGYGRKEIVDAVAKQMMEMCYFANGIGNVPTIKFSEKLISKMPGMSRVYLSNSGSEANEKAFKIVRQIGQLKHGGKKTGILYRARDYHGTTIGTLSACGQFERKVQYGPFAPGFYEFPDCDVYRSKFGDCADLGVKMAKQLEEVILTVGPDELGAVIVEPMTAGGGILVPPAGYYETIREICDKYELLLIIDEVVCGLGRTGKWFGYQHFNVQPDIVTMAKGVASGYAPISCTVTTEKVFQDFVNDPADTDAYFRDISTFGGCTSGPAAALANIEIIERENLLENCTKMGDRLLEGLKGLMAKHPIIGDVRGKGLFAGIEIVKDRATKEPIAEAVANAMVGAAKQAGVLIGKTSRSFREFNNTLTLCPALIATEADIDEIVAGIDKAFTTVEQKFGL

[2] = test system: O=S(=O)(O)CCO; test: purified protein; settings: anoxic; IslB-activated enzyme; NADH in coupling assay
[3] = biological target: T2, IslB (GRE-activating enzyme) (Bilophila wadsworthia, UniProt E5Y377); test: glycyl radical installation on IslA, EPR; assay type: biochemical; settings: anoxic, acriflavine as photosensitizer
T2 construct: His-tagged, E. coli BL21(DE3) delta-iscR::kan, anoxic purification, reconstituted, reduced with dithionite

[4] = biological target: T3, SarD (sulfoacetaldehyde reductase) (Bilophila wadsworthia, UniProt E5Y946); test: NADH-dependent reduction to isethionate; assay type: biochemical
T3 construct: His-tagged, E. coli Rosetta 2 DE3

[5] = biological target: T4, AdhE (CoA-acylating aldehyde dehydrogenase) (Bilophila wadsworthia, UniProt E5Y379); test: conversion to acetyl-CoA; assay type: biochemical; settings: CoASH
T4 construct: His-tagged, E. coli BL21
T4 sequence (E5Y379 1-484): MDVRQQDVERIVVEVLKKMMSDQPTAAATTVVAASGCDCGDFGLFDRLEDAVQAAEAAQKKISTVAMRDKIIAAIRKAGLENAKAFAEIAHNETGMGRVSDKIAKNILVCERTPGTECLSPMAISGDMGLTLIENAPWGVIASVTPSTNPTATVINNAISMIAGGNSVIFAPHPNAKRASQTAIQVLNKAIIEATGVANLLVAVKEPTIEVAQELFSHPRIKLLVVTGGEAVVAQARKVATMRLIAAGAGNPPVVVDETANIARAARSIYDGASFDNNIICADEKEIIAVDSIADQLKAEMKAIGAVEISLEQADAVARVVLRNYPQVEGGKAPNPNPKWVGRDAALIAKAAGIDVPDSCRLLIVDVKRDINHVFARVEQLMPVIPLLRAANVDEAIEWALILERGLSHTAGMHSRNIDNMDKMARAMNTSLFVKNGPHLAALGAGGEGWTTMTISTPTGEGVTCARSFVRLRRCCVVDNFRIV

[6] = substrate: O=S(=O)(O)CCO; test: coupled spectrophotometric assay with yeast alcohol dehydrogenase; assay type: biochemical, Desulfovibrio desulfuricans; settings: anoxic; activated enzyme
Source text: coupled spectrophotometric assay with yeast alcohol dehydrogenase on GRE IslA of D. desulfuricans DSM642 | selectivity for the cleavage of isethionate to sulfite and acetaldehyde, but a modest apparent kcat/Km

T3 sequence (E5Y946 whole entry): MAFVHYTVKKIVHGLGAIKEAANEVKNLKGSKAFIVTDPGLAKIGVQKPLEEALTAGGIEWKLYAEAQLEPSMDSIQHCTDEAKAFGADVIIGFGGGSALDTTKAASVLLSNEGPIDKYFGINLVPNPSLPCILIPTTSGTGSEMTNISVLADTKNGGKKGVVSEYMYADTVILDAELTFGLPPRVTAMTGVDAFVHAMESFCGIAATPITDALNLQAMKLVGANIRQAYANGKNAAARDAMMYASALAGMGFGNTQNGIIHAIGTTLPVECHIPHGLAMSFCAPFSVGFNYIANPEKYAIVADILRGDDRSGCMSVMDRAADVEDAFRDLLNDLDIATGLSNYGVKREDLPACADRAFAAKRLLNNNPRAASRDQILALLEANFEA
T2 sequence (E5Y377 whole entry): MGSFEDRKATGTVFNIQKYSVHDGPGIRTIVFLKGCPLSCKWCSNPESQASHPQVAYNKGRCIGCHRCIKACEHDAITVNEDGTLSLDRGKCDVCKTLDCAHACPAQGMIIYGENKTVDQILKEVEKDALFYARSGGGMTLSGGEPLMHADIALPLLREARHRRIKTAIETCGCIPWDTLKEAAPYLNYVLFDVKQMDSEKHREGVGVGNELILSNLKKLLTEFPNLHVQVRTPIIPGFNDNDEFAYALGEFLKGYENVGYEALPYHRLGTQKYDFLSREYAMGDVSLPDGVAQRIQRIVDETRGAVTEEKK
T2 sequence (E5Y378 whole entry, further chain): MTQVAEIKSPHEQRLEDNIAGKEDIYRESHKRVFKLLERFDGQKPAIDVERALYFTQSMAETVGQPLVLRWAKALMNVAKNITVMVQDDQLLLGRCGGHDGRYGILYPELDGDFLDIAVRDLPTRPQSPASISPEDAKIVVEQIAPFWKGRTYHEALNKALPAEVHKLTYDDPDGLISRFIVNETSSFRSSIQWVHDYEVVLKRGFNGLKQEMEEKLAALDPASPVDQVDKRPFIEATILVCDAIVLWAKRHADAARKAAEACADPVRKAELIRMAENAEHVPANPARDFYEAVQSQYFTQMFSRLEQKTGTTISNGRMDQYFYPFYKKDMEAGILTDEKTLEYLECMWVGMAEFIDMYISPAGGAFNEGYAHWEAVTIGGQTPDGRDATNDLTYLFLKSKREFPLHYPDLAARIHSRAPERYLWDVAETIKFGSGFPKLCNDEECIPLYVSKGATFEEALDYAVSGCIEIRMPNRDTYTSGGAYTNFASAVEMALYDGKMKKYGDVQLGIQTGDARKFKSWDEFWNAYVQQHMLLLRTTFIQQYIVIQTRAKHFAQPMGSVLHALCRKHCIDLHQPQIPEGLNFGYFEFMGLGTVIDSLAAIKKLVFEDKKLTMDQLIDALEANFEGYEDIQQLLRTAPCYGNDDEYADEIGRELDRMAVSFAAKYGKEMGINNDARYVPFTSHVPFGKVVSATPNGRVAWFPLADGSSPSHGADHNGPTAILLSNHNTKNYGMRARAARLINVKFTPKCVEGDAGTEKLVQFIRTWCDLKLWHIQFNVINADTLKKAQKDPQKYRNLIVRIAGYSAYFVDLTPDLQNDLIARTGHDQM

NCCS(=O)(=O)O [taurine, 2-aminoethanesulfonate]
deamination to sulfoacetaldehyde; LC-MS ([1]; pyruvate): Tpa catalyzes the deamination of taurine with pyruvate to generate sulfoacetaldehyde and alanine

IslA (isethionate sulfite-lyase) (Bilophila wadsworthia 3_1_6)
Km [2]: 8.1 ± 0.8 mM
kcat [2]: 14 ± 0.4 s⁻¹

C[S+](CC[C@H](N)C(=O)O)C[C@H]1O[C@@H](n2cnc3c(N)ncnc32)[C@H](O)[C@@H]1O (some centres unmarked) [SAM]
glycyl radical installation on IslA, EPR [3]: incubated with the purified GRE IslA in the presence of SAM and acriflavine

O=CCS(=O)(=O)O [sulfoacetaldehyde]
NADH-dependent reduction to isethionate ([4]; NADH): SarD reduces sulfoacetaldehyde to isethionate in an NADH-dependent manner

NC(=O)c1ccc[n+]([C@@H]2O[C@H](COP(=O)(O)OP(=O)(O)OC[C@H]3O[C@@H](n4cnc5c(N)ncnc54)[C@H](O)[C@@H]3O)[C@@H](O)[C@H]2O)c1 [NAD^+]
conversion to acetyl-CoA ([5]; acetaldehyde): it preferred NAD^+ over NADP^+

NC(=O)C1=CN([C@@H]2O[C@H](COP(=O)(O)OP(=O)(O)OC[C@H]3O[C@@H](n4cnc5c(N)ncnc54)[C@H](O)[C@@H]3O)[C@@H](O)[C@H]2O)C=CC1 [NADH]
NADH-dependent reduction to isethionate ([4]; sulfoacetaldehyde): SarD reduces sulfoacetaldehyde to isethionate in an NADH-dependent manner

CC(=O)C(=O)O [pyruvate]
deamination to sulfoacetaldehyde; LC-MS ([1]; taurine): Tpa catalyzes the deamination of taurine with pyruvate to generate sulfoacetaldehyde and alanine

CC=O [acetaldehyde]
conversion to acetyl-CoA ([5]; NAD+): converted acetaldehyde to acetyl-CoA only in the presence of CoASH and NAD^+

B1: GRE IslA of D. desulfuricans DSM642 (Desulfovibrio desulfuricans ATCC 27774) (protein)
chain: MSMTTCECRSPQEQRLYDKIEGREDRFRKTHPRVFRLLERFEGQKPRIDIERALYFTQSMQETEGQPLVLRWAKALMHIARNMTVYVQEDQLLLGRAGCDGRYGILYPELDGDFLDIAVRDLPTRKTSPATITPEDARRVVEEIAPYWKGKTYHEALNAALPAEVHKLTYDDPEGLISRFIVNETSSFRSSIQWVHDYEKILKRGFNSIKKEAREKLAALDPLSAKDDREKRPFLEAVMIVCDAIVLWAKRHAVLAREMAEKESDPVRKAELLRMAENAEHVPGEPARDFWEACQSQWFTQMFSRIEQKTGTTISNGRMDQYFQPYYKQDREAGKITEAQAMELLECMWVGMAEFIDMYISPTGGAFNEGYAHWEAVTVGGQTPDGRDASNDLTYLILKSKREFPLHYPDLAARIHSRAPERYLWDVAETIKYGSGFPKLINDEEIVPLYVSKGATFEEALDYAVSGCTEARMPNRDTYTSGGAYINFAAAVEMVLRNGRMKKYGDQKLGVETGDPRSFTTWDQFWNAYVEQHLLFLKTAFTQQYIINKLRAEHFAQPMGSAMHDLCMKHCIDLHQEQIPEGINLGYFEYMGLGTVVDSLAAVKKLVFEEKKLSMDKLIAAIDADFEGYEDVRALLRSAPCYGNNDEYADAIGRDIDRISVEYGNKYSMSDLGIHNDVRYVPFTSHVPFGKVVSATPNGRTDGFPLSDGSSASHGADVNGPTAVLLSNCTTKNMGLRDRAARMLNIKFTPKCVEGEQGTEKLVSFIRTFCDLKLWHVQFNVVNKGTLVAAQKDPQKYRNLIVRIAGYSAYFVDLSPDLQNDLIARTEHDVM
notes: His-tagged, E. coli BL21
Km [6]: 6.3 ± 0.5 mM
kcat [6]: 12 ± 0.2 s⁻¹
